Source: the supplement of paper PMC10627819

Columns and labels:
S. pneumoniae D39V [1] = assay: Bliss interaction score (quartile over a dose matrix) (fitness difference); higher = more antagonism (negative = synergy)
Outline: (§1)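 The Bliss score subtracts expected fitness, the product of the single-drug fitness values, from observed fitness. Fitness is plate-normalised OD595 at entry into stationary phase, relative to the robust no-drug mean and capped at 1, with single-drug fitness inferred from combinations. Summaries are quartiles over technical, biological and donor/recipient replicates.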

S. aureus DSM 20231 [2] = assay: as above
Outline: as §1

B. subtilis 168 [3] = assay: as above
Outline: as §1

S. aureus Newman [4] = assay: as above
Outline: as §1

S. pneumoniae D39V [5] = assay: fitness (endpoint OD595 vs no drug) (fraction); higher = more growth
Outline: (§2)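 Fitness compares growth at the stationary-phase transition with the robust mean of no-drug control wells, as a ratio of optical densities. The ratio is capped at 1. Wells of 384-well plates held 30 µl, or 55 µl for S. pneumoniae, inoculated at OD595 0.01. Readings at OD595 every 30 min for 14 h at 37 °C were corrected against the first reading.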

S. aureus DSM 20231 [6] = assay: as above
Outline: as §2

B. subtilis 168 [7] = assay: as above
Outline: as §2

S. aureus Newman [8] = assay: as above
Outline: as §2
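Throughout, for Bliss interaction score (quartile over a dose matrix): first quartile when negative (synergy) and third quartile when positive (antagonism).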

C[C@@H]1O[C@@H]1P(=O)(O)O [Fosfomycin] + Cc1ncc([N+](=O)[O-])n1CCO [Metronidazole]
Conditions | Bliss interaction score
B. subtilis 168 [3] | 0.0663
S. aureus DSM 20231 [2] | -0.0362
S. aureus Newman [4] | -0.0452
S. pneumoniae D39V [1] | 0.0507

fitness
Conditions | partner 0.625 µg/mL | partner 1.073 µg/mL | partner 1.25 µg/mL | partner 2.145 µg/mL | partner 2.5 µg/mL | partner 4.29 µg/mL | partner 5 µg/mL
B. subtilis 168 [7], first compound 1.562 µg/mL | 0.72 | – | 0.687 | – | 0.701 | – | –
B. subtilis 168 [7], first compound 3.124 µg/mL | 0.679 | – | 0.627 | – | 0.634 | – | –
B. subtilis 168 [7], first compound 6.248 µg/mL | 0.583 | – | 0.573 | – | 0.481 | – | –
S. aureus DSM 20231 [6], first compound 0.781 µg/mL | 0.785 | – | 0.783 | – | 0.852 | – | –
S. aureus DSM 20231 [6], first compound 1.562 µg/mL | 0.605 | – | 0.624 | – | 0.682 | – | –
S. aureus DSM 20231 [6], first compound 3.124 µg/mL | 0.497 | – | 0.493 | – | 0.493 | – | –
S. aureus Newman [8], first compound 0.781 µg/mL | 0.58 | – | 0.636 | – | 0.612 | – | –
S. aureus Newman [8], first compound 1.562 µg/mL | 0.502 | – | 0.511 | – | 0.453 | – | –
S. aureus Newman [8], first compound 3.124 µg/mL | 0.133 | – | 0.079 | – | 0.0859 | – | –
S. pneumoniae D39V [5], first compound 1.25 µg/mL | – | 0.957 | 0.975 | 0.94 | 0.992 | 0.95 | 1
S. pneumoniae D39V [5], first compound 2.5 µg/mL | – | 0.929 | 0.97 | 0.798 | 0.965 | 0.914 | 0.995
S. pneumoniae D39V [5], first compound 5 µg/mL | – | 0.87 | 0.857 | 0.893 | 0.886 | 0.864 | 0.847

fitness, S. aureus Newman [8], one replicate
Conditions | first compound 0.781 µg/mL | first compound 1.562 µg/mL | first compound 3.124 µg/mL
partner 0.781 µg/mL | 0.587 | 0.579 | 0.211
partner 1.562 µg/mL | 0.565 | 0.538 | 0.236
partner 3.124 µg/mL | 0.584 | 0.546 | 0.272

C[C@@H]1O[C@@H]1P(=O)(O)O [Fosfomycin] + CCN(CC)CCOC(=O)c1ccc(N)cc1 [Procaine]
Conditions | Bliss interaction score
B. subtilis 168 [3] | -0.0557
S. aureus DSM 20231 [2] | -0.0626
S. aureus Newman [4] | 0.0813
S. pneumoniae D39V [1] | -0.029

fitness
Conditions | partner 85.5 µg/mL | partner 171 µg/mL | partner 342 µg/mL
B. subtilis 168 [7], first compound 1.562 µg/mL | 0.711 | 0.704 | 0.646
B. subtilis 168 [7], first compound 3.124 µg/mL | 0.592 | 0.554 | 0.576
B. subtilis 168 [7], first compound 6.248 µg/mL | 0.377 | 0.372 | 0.322
S. aureus DSM 20231 [6], first compound 0.781 µg/mL | 0.736 | 0.812 | 0.833
S. aureus DSM 20231 [6], first compound 1.562 µg/mL | 0.603 | 0.64 | 0.634
S. aureus DSM 20231 [6], first compound 3.124 µg/mL | 0.427 | 0.513 | 0.489
S. aureus Newman [8], first compound 0.781 µg/mL | 0.576 | 0.54 | 0.562
S. aureus Newman [8], first compound 1.562 µg/mL | 0.535 | 0.553 | 0.516
S. aureus Newman [8], first compound 3.124 µg/mL | 0.198 | 0.197 | 0.162
S. pneumoniae D39V [5], first compound 1.25 µg/mL | 0.979 | 0.97 | 0.924
S. pneumoniae D39V [5], first compound 2.5 µg/mL | 0.951 | 0.921 | 0.905
S. pneumoniae D39V [5], first compound 5 µg/mL | 0.81 | 0.827 | 0.813
